Each structure is given as a SMILES string. Like-named read-outs stand apart in the source and are kept apart here.

One series concerns A549 lung carcinoma cell. Kind of series: MTT assay on A549 cells. The conditions noted are these: A549 cell, 24 h. An excerpt: (§1) The anti-proliferative property of the complexes 1 and 2 at different concentrations on A549 lung carcinoma cell and monkey kidney epithelial cell Vero was examined by adopting MTT assay (Fig. S7). […] The naked cobalt acetate and ligands salen and salophen were separately tested on A549 cells to understand if metal chelation is the principal basis of the anticancer activity of the complexes.
(§2) Culture: Human lung cancer cells (A549) were received from National Centre for Cell Science (NCCS) Pune, India. Vero cells were obtained from ATCC. The cells were grown at humidified atmosphere of 5% CO2 in an incubator at 37 °C (Forma, Thermo Scientific, USA) in DMEM medium (Invitrogen) containing 10% FBS (Sigma-Aldrich, St. Louis, Mo, USA), 100 μg/mL of penicillin and 100 μg/mL streptomycin were used as antibiotics (Himedia, Mumbai, India). […] The cells were seeded in 96 well plates (5000 A549 cells per well) and allowed to attach for 24 h. The cells were then incubated with different concentrations of the metal complexes 1 and 2 dissolved in 100% dimethyl sulfoxide (DMSO) (Sigma-Aldrich) and prepared to a final dilution of 0.02% of DMSO.
In the determination of IC50 value, 0.02% DMSO was used as the solvent control. After the end of incubation period (24 h), the medium was aspirated carefully and replaced with new medium. The formazan formed was dissolved in100 μL of 100% DMSO to each well. The absorbance was monitored at 570 nm using a 96 well plate reader (Bio-Rad, Hercules, California, USA). All experiments were repeated for a minimum of three times when each experiment was done in two replicates.

Series [1] relates to monkey kidney epithelial cell Vero. Put plainly: MTT assay on Vero cells.
From the text: as §1, §2
In the determination of IC50 value, 0.02% DMSO was used as the solvent control. After the end of incubation period (24 h), the medium was aspirated carefully and replaced with new medium. The formazan formed was dissolved in100 μL of 100% DMSO to each well. […]

For another series, the system named is DNA. Kind of series: Viscosity measurement of DNA. It counts as binding. The settings on record: 30.0 ± 0.2 °C, increasing amounts of compound. An excerpt: The mode of interaction between DNA and complexes has been further confirmed using viscosity measurements. The intercalation between DNA and metal complex causes lengthening of the DNA helix and increases DNA’s relative viscosity. Ethidium bromide (EB) is a well known DNA intercalator which was used as a standard to make sure our viscosity determination was working properly. […] The increase in relative viscosity follows the DNA-intercalating ability and the order of relative viscosity is EB > 2 > 1.
CD spectra of CT–DNA in the absence and presence of cobalt(III) complexes 1 and 2 were recorded in phosphate buffer. Each sample solution was scanned in the range of 200–320 nm, and final CD spectra were generated after averaging three scans subtracting the buffer background. Viscosity experiments were performed using an Ubbelohde viscometer at a constant temperature (30.0 ± 0.2 °C).

Another series addresses BSA (Bos taurus, UniProt P02769). The conditions noted are these: for Quenching Constant (kq): τ0 assumed 10^−8 s; for ∆G° / ∆H° / ∆S°: BSA binding; for ∆H° / ∆S°: van't Hoff plot 285-299 K. Here is the method: The obtained fluorescence quenching results were analyzed using the Stern-Volmer eqation, F0/F=1+Ksv[Q]kq=Ksv/τ0 where F0 and F are the fluorescence emission intensities of BSA in the absence and presence of complexes 1 and 2. KSV is the Stern-Volmer quenching constant, [Q] is concentration of the complexes 1 and 2, kq is the quenching rate constant of BSA and τ0 is the average lifetime of the emitter in the absence of quencher. The above equation was applied to determine KSV by linear regression of a plot of F0/F against [Q].
Normally, quenching can take place either as dynamic quenching, static quenching or a combination of both mechanisms. Static quenching refers to fluorophore-quencher complex formation in the ground state while dynamic quenching refers to a process in which the fluorophores and the quencher come into contact during the transient existence of the excited state[57],[58]. The plots of F0/F versus [Q]
For the static quenching process, the binding constant (Kb) and the number of binding sites (n) can be determined by the following equation[62] log[(F0−F)]/F=logKb+nlog[Q] where F0 and F are the fluorescence intensities of the emitter in the absence and presence of the quencher, respectively, and [Q] the concentration of the quencher. Thus, a plot of log F0 − F/F versus log [Q] (Fig. 3) was used to determine Kb.
In general, intermolecular interacting forces between a small molecule and a biomacromolecule include hydrogen bonding, van der Waals force, and electrostatic and hydrophobic interactions. The thermodynamic parameters, enthalpy change (ΔH°) and entropy change (ΔS°) of the binding are important for confirming the binding mode. For this reason, these thermodynamic parameters have been calculated using the equation, lnKb=−ΔH°/RT+ΔS°/RΔG°=ΔH°−TΔS°=−RTInKb where Kb is the binding constant at the corresponding temperature, and R is the gas constant. The ΔH° and ΔS° values are calculated from the slope and intercept from plotting ln Kb versus 1/T (Fig. 3).
The concentration of BSA prepared in PBS buffer (pH = 7.4) was determined spectrophotometrically using the extinction coefficient of 43,800 M^−1 cm^−1 at 280 nm[80]. The fluorescence spectra of BSA were recorded at room temperature with an excitation wavelength of BSA at 280 nm and the emission at 350 nm by keeping the concentration of BSA constant (1.35 × 10^−[…]) while increasing the cobalt(III) complex concentration regularly.

Sequence of BSA (P02769 25-607): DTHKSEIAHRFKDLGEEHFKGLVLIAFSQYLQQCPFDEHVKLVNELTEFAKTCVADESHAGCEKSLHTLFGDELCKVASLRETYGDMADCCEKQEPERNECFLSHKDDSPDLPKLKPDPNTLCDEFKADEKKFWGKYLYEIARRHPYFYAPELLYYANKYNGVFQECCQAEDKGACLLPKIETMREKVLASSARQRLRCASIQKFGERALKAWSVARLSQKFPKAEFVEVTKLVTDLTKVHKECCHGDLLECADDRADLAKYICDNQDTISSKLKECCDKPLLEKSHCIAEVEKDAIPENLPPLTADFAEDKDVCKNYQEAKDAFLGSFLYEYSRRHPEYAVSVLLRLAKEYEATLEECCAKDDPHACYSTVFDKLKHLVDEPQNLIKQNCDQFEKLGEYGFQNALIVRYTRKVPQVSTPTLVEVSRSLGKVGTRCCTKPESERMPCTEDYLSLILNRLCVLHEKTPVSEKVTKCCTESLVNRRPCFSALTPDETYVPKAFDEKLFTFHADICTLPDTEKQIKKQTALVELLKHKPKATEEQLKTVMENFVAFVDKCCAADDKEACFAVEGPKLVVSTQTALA

Consider `CCCCCCCCCCCC[NH2+][Co-3]123([NH2+]CCCCCCCCCCCC)[O]c4ccccc4C=[N+]1CC[N+]2=Cc1ccccc1[O]3.[O-][Cl+3]([O-])([O-])[O-]` [Complex 1, trans-[Co(salen)(DA)2](ClO4)], for which the 50% inhibitory concentration (IC50) in the series on A549 lung carcinoma cell was 80 µM. Besides, the “concentration up to which no significant toxicity” value in series [1] is more than 150 µM. The “effect on relative viscosity of DNA” value with DNA was “the relative viscosity of DNA increased”. Moreover, on BSA (285 K), the “Quenching Constant (kq)” value was 1.6763 10^13 M^−1 s^−1 and the “∆G°” value is -6.238 kcal/mol. Besides, at BSA (292 K), the “Quenching Constant (kq)” value is recorded as 1.3531 10^13 M^−1 s^−1 and the “∆G°” value is -6.7008 kcal/mol. In addition, on BSA (299 K), the “Quenching Constant (kq)” value was 1.0862 10^13 M^−1 s^−1 and the “∆G°” value was -7.4297 kcal/mol. In addition, on BSA, the “∆H°” value was “+69.429 kJ mol^−1” and the “∆S°” value is “+335.928 J mol^−1 K^−1”.

In the series with A549 lung carcinoma cell, `CCCCCCCCCCCC[NH2+][Co-3]123([NH2+]CCCCCCCCCCCC)[O]c4ccccc4C=[N+]1c1ccccc1[N+]2=Cc1ccccc1[O]3.[O-][Cl+3]([O-])([O-])[O-]` [Complex 2, trans-[Co(salophen)(DA)2](ClO4)] yielded a half-maximal inhibitory concentration (IC50) of 65 µM. The “concentration up to which no significant toxicity” value in series [1] (Vero cells, MTT) was more than 150 µM. The “effect on relative viscosity of DNA” value with DNA is “the relative viscosity of DNA increased”. On BSA (285 K), the “Quenching Constant (kq)” value is 1.4802 10^13 M^−1 s^−1 and the “∆G°” value is -5.6506 kcal/mol. Also, on BSA (292 K), the “Quenching Constant (kq)” value is given as 1.2245 10^13 M^−1 s^−1 and the “∆G°” value was -6.0217 kcal/mol. At BSA (299 K), the “Quenching Constant (kq)” value is 1.0114 10^13 M^−1 s^−1 and the “∆G°” value was -6.9336 kcal/mol. Besides, at BSA, the “∆H°” value is “+85.617 kJ mol^−1” and the “∆S°” value is on record as “+383.182 J mol^−1 K^−1”.

(Values after publication PMC6389928, “Biomolecular Interaction, Anti-Cancer and Anti-Angiogenic Properties of Cobalt(III) Schiff Base Complexes” (Scientific Reports, 2019).)
